Experiment [1] concerns Drosophila melanogaster flies with human G12V kRAS expressed in the wing. In words: Fly screen: reversal of crinkled wing phenotype. It is filed as in vivo. An excerpt:
The Tosk approach uses Drosophila melanogaster flies as media for initial screening for RAS modulating compounds. Tosk has created a fruit fly with human kRAS G12V expressed in its wing. The mutant kRAS expressed in the fly wing appears functional, even though it operates in the presence of the other physiological systems present in the fly. The fly phenotype in the mutant fly is a crimped wing which can be reversed to a great extent if the fly is fed food enriched with an effective kRAS inhibitor. The fly kRAS suppressor screen can provide a more predictive model compared to conventional discovery methods because the kRAS is in its natural (i.e., not artificial/isolated/manipulated) environment anchored to the plasma membrane, positioned correctly, and surrounded by appropriate neighboring chemicals. Several reports have emphasized the importance of kRAS positioning and environment to realize protein activity.
2. Fly with Crinkled Wing Phenotype.
1. Production of Fly Food/Test Article Mix. A Biomek 2000 robotic arm is used to pipet 40 μL of a 10 mM DMSO solution of Test Article into a 35 mL polypropylene Drosophila fly vial (VWR 89092-728) containing 10 mL ETOH. A half teaspoon blue fly food (4-24, Carolina Biological Supply), is added and the tubes are vortexed and placed into a HT-4X GeneVac to remove the DMSO and ETOH. The tube is vortexed, 4 ml water added, and vortexed again. Control samples are tubes with fly food prepared with just 40 μL DMSO, no Test Article, or 40 μL of a DMSO solution containing 50 μM of the trametanib positive control. 2. Screen. Several hundred male G12V kRAS flies and several hundred GAL4 females are placed in a custom Plexiglas population cage (12″×12″×8″) made fly condo containing grape agar and yeast paste prepared using a published protocol. Embryos from the container are washed off the grape agar onto a sieve and re-suspended in an aqueous sucrose/salt/triton solution. An aliquot of this solution is analyzed using a dissecting microscope to determine the embryo concentration. The appropriate solution to deliver 150 embryos is then added to the fly food/Test article vials. The vial is capped with a cellulose fly bottle plug. […] The vials are incubated at 23° C. in a temperature-controlled room for 12 days. 3. Analysis. After 12 days, all flies in a vial are observed under a microscope following CO2 anesthesia for the number of phenotype reversals compared to the total number of viable flies. Cell culture testing is typically performed for any Test Article showing evidence of >25% phenotype reversal. The trametinib positive control provides reversal of the crimped/crinkled phenotype for 50-75% of the flies.
A library of over 16,000 distinct chemicals was purchased from ChemDiv, San Diego, Calif. All the compounds were evaluated in the fly screen described above for the ability to reverse the crinkled wing phenotype. […] One of the three compounds was Structure 1.

In experiment [2] the test system is SW620 human cancer cells (G12V kRAS). In words: Cytotoxicity assay (CellTiter-Glo 2.0, 72 hours). Type of experiment: cell-based. Here is the method: FIG. 1, Cytotoxicity of exemplary compound (Structure 1) on SW620 human cancer cells. The cytotoxicity of compounds of interest are tested against the human colon cancer cell line SW620 as described in the experimental section. SW620 cells express a mutant G12V kRAS. Compounds are incubated with cells for 72 hours and the assay developed using Cell Titer Glo 2.0. IC50 values are determined using GraphPad Prism4.
Structure 1 was assayed for inhibition of cell proliferation and killing cancer cells. Cytotoxicity assays were conducted according to the following general procedure. SW620, SW1990, etc, were all maintained in Leibowitz L15 media supplemented with 10% fetal bovine serum and 1% PenStrep and grown in a 37° C. incubator without supplemental CO2. Cells were plated into 96 well flat bottom plates (2 million/plate, ˜20,000/well, 200 μLmedia/well). The cells were allowed to settle and adhere to plate bottom overnight.
Compounds were diluted in media from a 10 mM stock solution starting at 50 μM, using 2-fold dilutions, in a column in a 96-well plate. Media was removed from the plate containing cells and replaced with media containing diluted compounds. Plates were incubated 72 hours at 37° C. with no supplementary CO2. […] Luminescence was read with a FLx800 (BioTek Instruments). […]
A general note: ATP-based viability assays read luminescence as a measure of living cells.

In another experiment the test system is non-phosphorylated ERK. The experiment is described as follows: Non-phosphorylated ERK western blot in SW1990 cells. Type of experiment: cell-based, human. The settings on record: data not shown. The protocol: (§1) Structure 1 decreased both phosphorylated AKT and phosphorylated ERK. Structure 1 had no effect on AKT or ERK (data not shown).
(§2) A method used to measure ERK and AKT is based on Welsch et al, Cell 168: 878-889 February 2017. SW1990 cells, growth driven by a G12D kRAS mutation and derived from human, pancreatic cancer cells, are plated in a 6-well plate at 1.5×10^6 cells per plate and grown overnight at 37° C. Media is replaced with serum-free media and the plate incubated an additional 24 hours. Media is replaced with media with or without compound and incubated for an additional 24 hours. EGF is added at a concentration of 10 ng/mL. After 15 minutes, cells are washed with ice cold PBS and lysed with RIPA buffer.
(§3) The lysate is processed by electrophoresis using a Mini-PROTEAN® gel mounted in a Mini-PROTEAN® Tetra Cell (cassette). Both the gel and the holding assembly (cassette) are purchased from BIORAD. The gel in the assembly is placed, electrode up, in the buffer tanks. The Tris/glycine/SDS buffer is added to both the inner buffer chamber (200 mL) and the outer buffer chamber (800 mL). […]
(§4) The membrane is placed into TTBS buffer containing SuperBlock T20 (Thermo Scientific) and incubated for 1 hour at room temperature. […] The anti pERK detected both pERK 1 and 2 (T202/Y204). […]
(In general: In western blotting, separated proteins are transferred to a membrane and probed.)

The test system of the next experiment is phosphorylated ERK. In words: Phosphorylated ERK western blot in SW1990 cells. The following applies: 24 hours with compound, EGF 10 ng/mL 15 minutes, FIG. 2. It is filed as cell-based, human. The protocol: as §1, §2, §3, §4

“Also recorded” adds a separate entry of the source. Read-outs that look alike come from different tables or passages of the source.

Turning to `Cc1nc2c(-c3ccccc3)c(C)nn2c(NCc2ccccn2)c1Cc1ccccc1` [Structure 1], the “Flies with Reversed Phenotype” value in experiment [1] (Experiment 1, 20 μM in fly food) is given as 75%; in experiment [1] (Experiment 2, 20 μM in fly food) it was 58%. The “Flies with phenotype reversals relative to positive control trametinib” value in experiment [1] (Experiment 1, 75% versus 29%) was “over 2.5 fold”. Besides, the “Ability to reverse the crinkled wing phenotype in library screen” value in experiment [1] (screen of over 16,000 ChemDiv compounds, ~100 μM in fly food, 12 days) is on record as “reliably reversed the phenotype”. The IC50 (as a rule, the concentration at which inhibition is half-maximal) came to 3.9 µM in experiment [2] (SW-620, Cell Titer Glo 2.0, read-out: IC50, cytotoxicity on SW620 human cancer cells (FIG. 1 legend)) and 3.9 µM in experiment [2] (SW-620, CellTiter-Glo 2.0, read-out: IC50 in the SW620 cells). The “Effect on non-phosphorylated ERK” value with non-phosphorylated ERK is “no effect; also recorded: without affecting”. The “Effect on phosphorylated ERK” value with phosphorylated ERK is recorded as “decreased; also recorded: suppressed”.

The record behind these values is patent US11390626B2, “Pyrazolopyrimidine modulators of RAS GTPase” (Tosk, Inc., priority 2019, dated 2022).
